{"source": "paper PMC11977230", "about": "“Coevolving residues distant from the ligand binding site are involved in GAF domain function” (Communications Chemistry, 2025)", "key": {"[1]": {"target": "T1, WT PDE5 GAFa domain biosensor (GFP^2-GAFa(I159-N316)-RLuc) (Homo sapiens, UniProt O76074)", "T1 construct": "plasmids expressing the GAFa domain-based (GFP^2-GAFa(I159-N316)-RLuc); made in house; host or cells: HEK293T cells, transfected; cleared lysate used, not purified", "assay": "BRET-based GAFa domain conformational biosensor, cGMP dose-response (WT)", "type": "biochemical", "excerpt": "(§1) Having observed alterations in the structural dynamics in the GAFa domain of PDE5 upon L267A and F295A mutations using MD simulations, we then proceeded to determine the impact of these mutations experimentally. […] (Fig. 4A). Broadly, these changes include a close juxtaposition of the sheet β3 and helix α4 leading to a “closing” of the cGMP binding site, an “inward” movement of sheet β1 and β2 towards the cGMP binding site and an “outward” movement of the loop β2/β3 (Fig. 4A, left panel). Additionally, cGMP binding is associated with a close juxtapositioning of helices α2 and α5 at the N- and C-termini of the GAFa domain, likely associated with the transduction of the allosteric signal from the GAFa domain to the catalytic domain in PDE5 (Fig. 4A, right panel). We decided to take advantage of the latter to monitor cGMP-binding induced conformational change in the GAFa domain through an increase in the BRET efficiency of the GAFa domain biosensor that we have described previously[24] (Fig. 4B). BRET is a biophysical technique that involves resonance energy transfer between a bioluminescent donor and a fluorescent acceptor, the extent of which is dependent on the spectral overlap, distance, and relative orientation between the two reporters. […]"}, "[2]": {"target": "T2, L267A mutant PDE5 GAFa domain biosensor (Homo sapiens, UniProt O76074, L267A)", "T2 construct": "made in house; host or cells: HEK293T cells, transfected; cleared lysate used, not purified", "assay": "BRET-based GAFa domain conformational biosensor, cGMP dose-response (L267A)", "type": "biochemical", "conditions": "1 µM cGMP", "excerpt": "as §1"}, "[3]": {"target": "T3, F295A mutant PDE5 GAFa domain biosensor (Homo sapiens, UniProt O76074, F295A)", "T3 construct": "made in house; host or cells: HEK293T cells, transfected; cleared lysate used, not purified", "assay": "BRET-based GAFa domain conformational biosensor, cGMP dose-response (F295A)", "type": "biochemical", "conditions": "1 µM cGMP", "excerpt": "as §1"}, "[4]": {"target": "T4, WT full-length PDE5A2 biosensor (GFP^2-PDE5A2-RLuc) (Homo sapiens, UniProt O76074)", "T4 construct": "the GAFa domain (I159-N316) or the full-length PDE5A2, were flanked by the green fluorescent protein 2 (GFP^2); made in house; host or cells: HEK293T cells, transfected; cleared lysate used, not purified", "assay": "BRET-based full-length PDE5A2 conformational biosensor, cGMP dose-response (WT)", "type": "biochemical", "excerpt": "(§2) Having elucidated the impact of the L267A and F295A mutations in the isolated GAFa domain, we aimed to investigate their effect on the cGMP-binding induced conformational change in the full-length PDE5 protein. For this, we incorporated the mutations in our previously described BRET-based, full-length PDE5A2 biosensor (Fig. 5A) that reports a conformational change upon cGMP binding to the GAFa, but not the catalytic, domain in the protein[25].\n(§3) The design of the BRET^2-based GAFa and full-length PDE5 (A2 isoform) biosensors was described previously[24],[25]. […]\n(§4) All assays were performed at 37 °C in 96-well, white, flat-bottom plates. […] Bioluminescence spectra of the WT or the mutant biosensors were acquired over wavelengths ranging between 385 and 665 nm utilizing a grating-based system with 15 nm integration step size, with each individual measurement acquired for 1 s using a Tecan SPARK® multimode microplate reader (Tecan, Switzerland). BRET was determined as a ratio of GFP^2 and RLuc emission, either in the absence or in the presence of the indicated concentrations of cGMP, following a 30-min incubation at 37 °C. Bioluminescence and BRET were measured following the addition of the RLuc substrates, either coelenterazine 400a or Prolume purple (NanoLight Technology, Prolume Ltd., USA). […]"}, "[5]": {"target": "L267A mutant full-length PDE5A2 biosensor (Homo sapiens, UniProt O76074, L267A)", "assay": "BRET-based full-length PDE5A2 conformational biosensor, cGMP dose-response (L267A)", "type": "biochemical", "excerpt": "as §2, §3, §4"}, "[6]": {"target": "F295A mutant full-length PDE5A2 biosensor (Homo sapiens, UniProt O76074, F295A)", "assay": "BRET-based full-length PDE5A2 conformational biosensor, cGMP dose-response (F295A)", "type": "biochemical", "excerpt": "as §2, §3, §4"}, "[7]": {"system": "isolated PDE5 GAFa domain", "conditions": "cited from earlier work"}, "GAFb domain of PDE2A": {"system": "GAFb domain of PDE2A", "parameters": "method as in PMID 15210692", "conditions": "cGMP-binding GAFb domain of PDE2A; cited from earlier work"}, "[8]": {"conditions": "30 min incubation, mean ± S.D., three experiments, read-out: EC50 of cGMP-induced conformational change (decrease in BRET)"}}}
{"compound": "Nc1nc2c(ncn2[C@@H]2O[C@@H]3COP(=O)(O)O[C@H]3[C@H]2O)c(=O)[nH]1", "note": "[cGMP]", "values": [{"measurement": "change in BRET in the presence of cGMP", "setting": "[1]; 1 µM cGMP", "value": "increase in BRET"}, {"measurement": "EC50", "setting": "[1]; read-out: EC50 of cGMP-induced conformational change (increase in BRET), HEK293T cell lysate, 30 min, 37 °C, mean ± S.D., four experiments", "value": "19 ± 13", "unit": "nM"}, {"measurement": "change in BRET in the presence of cGMP", "setting": "[2]", "value": "neither the L267A nor the F295A mutant biosensors showed a discernible change in BRET"}, {"measurement": "change in BRET in the presence of cGMP", "setting": "[3]", "value": "neither the L267A nor the F295A mutant biosensors showed a discernible change in BRET"}, {"measurement": "EC50", "setting": "[4]; [8]", "value": "73 ± 20", "unit": "nM"}, {"measurement": "maximum BRET change", "setting": "[4]; cGMP dose-response", "value": "-26.60 ± 3.42", "unit": "%"}, {"measurement": "EC50", "setting": "[5]; [8]", "value": "181 ± 30", "unit": "nM"}, {"measurement": "maximum BRET change", "setting": "[5]; cGMP dose-response", "value": "−17.43 ± 1.31", "unit": "%"}, {"measurement": "EC50", "setting": "[6]; [8]", "value": "3400 ± 2100", "unit": "nM"}, {"measurement": "maximum BRET change", "setting": "[6]; cGMP dose-response", "value": "−12.60 ± 2.37", "unit": "%"}, {"measurement": "affinity for cGMP", "setting": "[7]; PDE5 GAFa domain", "value": "nanomolar affinity"}, {"measurement": "higher affinity for cGMP compared to cAMP", "setting": "[7]; isolated PDE5 GAFa domain", "value": "thousand-fold"}, {"measurement": "fold higher affinity for cGMP", "setting": "GAFb domain of PDE2A", "value": "about 20 fold"}]}
